Nine compounds from patent publication US20230277630A1, “METHODS AND COMPOSITIONS FOR TREATING AMYOTROPHIC LATERAL SCLEROSIS” (Amylyx Pharmaceuticals, Inc., priority 2022, published 2023) can be followed below.

In one series the test system is human hepatocytes. The following applies: 72 h, 100 µM. The procedure: Plateable and inducible cryopreserved human hepatocytes were thawed and isolated in human hepatocyte thawing medium. […] After attachment (4 hours), the medium was changed to fresh hepatocyte culture medium for overnight cell recovery. […] A positive control (100 μM chlorpromazine) was treated in parallel. […] The absorbance of formazan, which is proportional to the number of viable cells, was measured spectrophotometrically using the CellTiter 96® AQueous One Solution Cell Proliferation Assay (MTS).

On the set-up of series [1]: species or system male Sprague Dawley rats. The following applies: male, Sprague Dawley, rat, in vivo, po. As for the experimental part: Total urine recovery data for Tenofovir, TDF, and PB was calculated for the 24 hour collection period on Days 1 and 5. […] The reported urine recovery data included amount recovered (ng) and percent recovered (%) for […]. Individual and mean Tenofovir, TDF, and PB urine recovery data were presented with SD, reported to three significant figures, and CV %, reported to one decimal place.

Series [2] can be described thus: CYP reaction phenotyping: CYP control (negative control without CYP enzymes). The note with it: pH 7.4. The procedure: The reaction was initiated by the addition of NADPH, followed by incubation at 37° C.
The target in the next series is hrCYP3A4 (Homo sapiens, UniProt P08684). Description: Formation of CYP probe metabolites in hrCYPs. The series is classed as in vitro ADME. The following applies: Formation rate(hrCYP)/Formation rate(Negative Control).
Sequence of hrCYP3A4 (P08684 whole entry): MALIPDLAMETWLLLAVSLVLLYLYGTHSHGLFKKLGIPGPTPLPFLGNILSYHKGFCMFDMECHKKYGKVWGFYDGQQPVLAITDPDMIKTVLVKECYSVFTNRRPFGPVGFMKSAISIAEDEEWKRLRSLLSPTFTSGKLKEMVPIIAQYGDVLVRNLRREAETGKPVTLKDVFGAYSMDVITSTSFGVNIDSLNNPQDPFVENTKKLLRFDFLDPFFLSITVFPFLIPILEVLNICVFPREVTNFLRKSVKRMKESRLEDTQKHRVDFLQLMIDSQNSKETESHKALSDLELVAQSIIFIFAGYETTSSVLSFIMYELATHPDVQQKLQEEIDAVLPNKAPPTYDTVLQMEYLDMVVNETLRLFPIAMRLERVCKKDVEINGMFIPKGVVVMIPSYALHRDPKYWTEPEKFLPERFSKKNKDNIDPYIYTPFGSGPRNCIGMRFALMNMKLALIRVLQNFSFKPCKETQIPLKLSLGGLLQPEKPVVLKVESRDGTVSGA
The conditions of series [3]: rat, in vivo.
For another series, the target named is T1, OATP1B3 (Homo sapiens, UniProt Q9NPD5).
T1 sequence (Q9NPD5 1-702): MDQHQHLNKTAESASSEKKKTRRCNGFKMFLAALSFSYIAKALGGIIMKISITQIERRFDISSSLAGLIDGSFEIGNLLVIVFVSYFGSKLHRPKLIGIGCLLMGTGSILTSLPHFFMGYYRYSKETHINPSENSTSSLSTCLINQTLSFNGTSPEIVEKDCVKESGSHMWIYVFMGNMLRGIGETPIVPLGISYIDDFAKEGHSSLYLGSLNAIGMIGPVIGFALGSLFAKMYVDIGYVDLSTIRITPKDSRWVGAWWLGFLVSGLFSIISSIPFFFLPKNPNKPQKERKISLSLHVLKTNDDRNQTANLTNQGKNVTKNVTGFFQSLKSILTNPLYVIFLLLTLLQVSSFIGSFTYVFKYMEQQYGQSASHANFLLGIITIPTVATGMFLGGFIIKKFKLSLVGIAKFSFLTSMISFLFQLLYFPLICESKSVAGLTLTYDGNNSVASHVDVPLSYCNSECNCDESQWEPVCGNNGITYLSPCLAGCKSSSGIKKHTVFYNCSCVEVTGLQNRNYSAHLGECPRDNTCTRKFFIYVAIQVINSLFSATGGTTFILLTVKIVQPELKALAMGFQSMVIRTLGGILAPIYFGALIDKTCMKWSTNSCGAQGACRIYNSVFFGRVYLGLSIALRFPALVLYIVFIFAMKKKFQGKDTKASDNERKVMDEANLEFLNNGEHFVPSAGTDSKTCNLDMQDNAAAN
Description: OATP1B3 inhibitor (IC50) assessment, atorvastatin uptake in transfected HEK cells.

The next series concerns the target T2, OATP1B1 (Homo sapiens, UniProt Q9Y6L6).
T2 sequence (Q9Y6L6 1-691): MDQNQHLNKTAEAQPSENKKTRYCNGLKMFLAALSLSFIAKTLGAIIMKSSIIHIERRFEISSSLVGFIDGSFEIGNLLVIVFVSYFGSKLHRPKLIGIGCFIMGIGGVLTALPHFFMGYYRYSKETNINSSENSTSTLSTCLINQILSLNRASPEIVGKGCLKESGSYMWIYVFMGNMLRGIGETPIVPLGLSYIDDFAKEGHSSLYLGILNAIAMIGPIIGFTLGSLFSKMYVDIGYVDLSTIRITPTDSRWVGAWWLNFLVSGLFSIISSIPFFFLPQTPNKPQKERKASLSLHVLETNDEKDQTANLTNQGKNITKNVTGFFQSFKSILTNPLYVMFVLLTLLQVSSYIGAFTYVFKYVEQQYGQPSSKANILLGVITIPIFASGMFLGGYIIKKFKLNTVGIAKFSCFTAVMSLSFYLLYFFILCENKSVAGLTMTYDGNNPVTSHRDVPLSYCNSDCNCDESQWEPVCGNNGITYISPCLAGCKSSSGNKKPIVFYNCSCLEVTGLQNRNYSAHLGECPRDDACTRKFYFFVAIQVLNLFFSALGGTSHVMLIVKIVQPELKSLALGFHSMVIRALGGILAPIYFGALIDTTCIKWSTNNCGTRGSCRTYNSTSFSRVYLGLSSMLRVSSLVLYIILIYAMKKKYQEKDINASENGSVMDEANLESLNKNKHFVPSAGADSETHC
Description: OATP1B1 inhibitor (IC50) assessment, atorvastatin uptake in transfected HEK cells.

In a further series the target is T3, CYP2C8 (Homo sapiens, UniProt P10632).
T3 sequence (P10632 1-490): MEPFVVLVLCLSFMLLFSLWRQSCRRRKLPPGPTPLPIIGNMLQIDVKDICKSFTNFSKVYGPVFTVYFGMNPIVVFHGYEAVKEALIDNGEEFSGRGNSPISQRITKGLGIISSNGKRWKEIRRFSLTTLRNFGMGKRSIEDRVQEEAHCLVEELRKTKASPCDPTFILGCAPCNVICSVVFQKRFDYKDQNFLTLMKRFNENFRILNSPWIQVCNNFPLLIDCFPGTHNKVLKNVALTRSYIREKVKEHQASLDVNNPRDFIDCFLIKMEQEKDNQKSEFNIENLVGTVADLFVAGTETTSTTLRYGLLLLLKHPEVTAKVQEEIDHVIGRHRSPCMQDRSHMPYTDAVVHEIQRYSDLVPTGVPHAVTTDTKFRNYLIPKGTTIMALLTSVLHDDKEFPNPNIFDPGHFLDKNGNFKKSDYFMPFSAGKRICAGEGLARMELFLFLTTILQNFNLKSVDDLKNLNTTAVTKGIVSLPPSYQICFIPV
Description: Inhibition of CYP2C8 activity in human liver microsomes. It counts as in vitro ADME. The arrangement: co-incubated with pooled HLM (0.25 mg protein/mL); from tissue; host or cells: pooled human liver microsomes. The procedure:
[…]. […] Negative (vehicle) controls were conducted without TA.
On the technique in general: Liver microsomes are a subcellular fraction often used to study metabolism.

Series [4] has as its target T4, CYP2B6 (Homo sapiens, UniProt P20813).
T4 sequence (P20813 1-491): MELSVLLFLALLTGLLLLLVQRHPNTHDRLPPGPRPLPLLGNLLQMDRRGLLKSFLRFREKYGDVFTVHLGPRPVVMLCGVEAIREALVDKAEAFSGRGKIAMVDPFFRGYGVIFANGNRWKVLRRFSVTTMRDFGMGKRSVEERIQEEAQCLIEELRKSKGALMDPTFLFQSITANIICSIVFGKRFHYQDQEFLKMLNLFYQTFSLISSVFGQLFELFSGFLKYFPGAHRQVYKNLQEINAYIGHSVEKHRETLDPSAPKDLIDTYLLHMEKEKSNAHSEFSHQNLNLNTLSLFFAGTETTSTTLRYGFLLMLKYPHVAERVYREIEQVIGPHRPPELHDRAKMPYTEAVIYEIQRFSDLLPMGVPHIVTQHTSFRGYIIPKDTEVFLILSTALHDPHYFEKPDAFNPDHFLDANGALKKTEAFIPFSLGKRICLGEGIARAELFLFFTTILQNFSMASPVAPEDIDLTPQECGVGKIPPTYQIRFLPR
Put plainly: Time-dependent inhibition (TDI) of CYP in HLM, 30 min pre-incubation ±NADPH. The note with it: microsomes, pH 7.4, % of Control Enzyme Activity. The procedure: CYP TDI was evaluated by a 30-minute pre-incubation of the TA with HLM in the presence and absence of NADPH followed by the CYP enzyme activity assay. […] The total organic solvent content in the final incubation was less than 1% (DMSO ≤0.1%, other organic solvent ≤1%). The CYP reactions were initiated by adding an individual CYP probe substrate with (when NADPH was not added in the pre-incubation step) or without (when NADPH was added in the pre-incubation step) the addition of NADPH (1 mM). The reaction mixture was incubated at 37° C. for 10-30 minutes depending on the individual CYP isoform (Table 24). The reaction was terminated with ice-cold acetonitrile (ACN) containing an internal standard (IS, stable isotope-labeled CYP probe metabolite). Negative (vehicle) controls were conducted using the incubation mixture without the TA. Positive controls were performed in parallel using known CYP time-dependent inhibitors. […] The formation of individual CYP probe metabolites was determined by LC-MS/MS.
The enzyme activity was expressed as the peak area ratio of CYP probe metabolite to IS, measured by LC-MS/MS.

Series [5] deals with T4, CYP2B6. Put plainly: Inhibition of CYP2B6 activity in human liver microsomes. The series is classed as in vitro ADME. The arrangement: co-incubated with pooled HLM (0.25 mg protein/mL); from tissue; host or cells: pooled human liver microsomes.
In the next series the target is CYP2C9 (Homo sapiens, UniProt P11712). Put plainly: Inhibition of CYP2C9 activity in human liver microsomes. As for the experimental part: CYP enzyme activity was determined by measuring the formation of each CYP probe metabolite by LC-MS/MS.
Sequence of CYP2C9 (P11712 whole entry, canonical isoform): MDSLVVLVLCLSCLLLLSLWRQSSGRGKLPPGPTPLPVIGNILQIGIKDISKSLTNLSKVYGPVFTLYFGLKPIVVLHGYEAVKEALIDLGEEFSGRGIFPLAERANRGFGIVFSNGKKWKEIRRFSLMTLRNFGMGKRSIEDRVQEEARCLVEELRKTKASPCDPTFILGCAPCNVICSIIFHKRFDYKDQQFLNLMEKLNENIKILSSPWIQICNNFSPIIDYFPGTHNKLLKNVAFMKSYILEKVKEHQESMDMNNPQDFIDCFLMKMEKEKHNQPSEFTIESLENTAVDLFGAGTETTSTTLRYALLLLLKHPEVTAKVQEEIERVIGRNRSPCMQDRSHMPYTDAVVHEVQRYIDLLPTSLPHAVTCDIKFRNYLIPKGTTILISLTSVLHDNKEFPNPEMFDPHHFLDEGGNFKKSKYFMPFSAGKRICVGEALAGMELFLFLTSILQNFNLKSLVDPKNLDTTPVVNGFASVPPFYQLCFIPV
The total organic solvent content in the final incubation was less than 1% (DMSO ≤0.1%, other organic solvent ≤1%). […] The reaction was initiated by the addition of NADPH, followed by incubation at 37° C. for 10-30 minutes depending on the individual CYP isoform. The reaction was terminated by the addition of two volumes of ice-cold acetonitrile (ACN) containing an internal standard (IS, stable isotope-labeled CYP probe metabolite). Negative (vehicle) controls were conducted without TA. Positive controls were performed in parallel using known CYP inhibitors. […] The formation of individual CYP probe metabolites was determined by LC-MS/MS.
The enzyme activity was expressed as the peak area ratio of probe metabolite to IS, measured by LC-MS/MS.

Where a name gives a salt, the structure may show the parent alone.

Turning to `CN(C)CCCN1c2ccccc2Sc2ccc(Cl)cc21` [Chlorpromazine, chlorpromazine], in the series on human hepatocytes, the “% MTS Absorbance Relative to Vehicle Control” value came to 24.3% and the “Formazan Absorbance (n = 3) Mean” value is given as 0.160.

Consider `CC(C)OC(=O)OCOP(=O)(CO[C@H](C)Cn1cnc2c(N)ncnc21)OCOC(=O)OC(C)C` [TDF, Tenofovir Disoproxil Fumarate], for which the Urine concentrations entry in [1] was “Urine concentrations for PB analysis in all animals on Day 1, for TUDCA analysis in all animals on Days 1 and 5, and for TDF analysis in two animals on Day 1 and one animal on Day 5 were BLQ (<20 ng/mL) so no recovery data was calculated”.

As for `C[C@]12CC[C@H]3[C@@H](CCC4=CC(=O)CC[C@@]43C)[C@@H]1CC[C@@H]2O` [Testosterone, reference compound], in [2], the “Formation Rate” value is given as 0 pmol metabolite/min/mg Supersome protein and the “Measured Metabolite” value worked out at 0 µM. The “Formation Rate Ratio” value on hrCYP3A4 is >>2.

`C[C@H](Cn1cnc2c(N)ncnc21)OCP(=O)(O)O` [Tenofovir]: the “individual Tmax” value in series [3] worked out at 15 min.

For `CO[C@H]1/C=C/O[C@@]2(C)Oc3c(C)c([O-])c4c(O)c(cc(O)c4c3C2=O)NC(=O)/C(C)=C\C=C\[C@H](C)[C@H](O)[C@@H](C)[C@@H](O)[C@@H](C)[C@H](OC(C)=O)[C@@H]1C.[Na+]` [RSV, rifamycin SV], at OATP1B3 ([…] Atorvastatin + 10 μM RSV), the “Net Influx Rate of Atorvastatin (OATP1B3)” value came out at 0.0551 pmol/mgprotein/minute and the “Percentage Inhibition of OATP1B3” value came to 98.1%. Besides, on OATP1B3 (known inhibitor), the “inhibition of atorvastatin uptake in OATP1B3-transfected cells” value is given as 98.1%. At OATP1B1 ([…] Atorvastatin + 10 μM RSV), the “Net Influx Rate of Atorvastatin (OATP1B1)” value is 0.184 pmol/mg protein/minute and the “Percentage Inhibition of OATP1B1” value is given as 96.7%. Also, the “inhibition of atorvastatin uptake in OATP1B1-transfected cells” value against OATP1B1 (known inhibitor) is recorded as 96.7%.

As a reminder, the IC50 is the point on the concentration scale where inhibition reaches its midpoint. In the case of `CC(C)(O)c1ccccc1CC[C@@H](SCC1(CC(=O)O)CC1)c1cccc(/C=C/c2ccc3ccc(Cl)cc3n2)c1` [Montelukast], at CYP2C8 (human, microsomes, pH 7.4), the activity at 3.33 μM is 14.6% and the activity at 10 μM was 5.31%. In addition, the IC50 on CYP2C8 (positive inhibitor, HLM) was 517 nM.

Consider `Cc1ncc2n1-c1ccc(Cl)cc1C(c1ccccc1F)=NC2` [Midazolam, reference compound], for which, in series [2], the “Formation Rate” value was 0 pmol metabolite/min/mg Supersome protein and the “Measured Metabolite” value is 0 µM. Also, the “Formation Rate Ratio” value on hrCYP3A4 is >>2.

Regarding `S=P(N1CC1)(N1CC1)N1CC1` [Thio-TEPA], the activity at 30 min, 3.33 µM on CYP2B6 [4] (+NADPH 30 min, 3.33 μM) came out at 35.5%. The activity at 30 min, 10 µM on CYP2B6 [4] (+NADPH 30 min) amounted to 18.3%; at CYP2B6 [4] (−NADPH 30 min), 76.7%. Besides, the activity at 30 min, 30 µM turned out to be 11.6% on CYP2B6 [4] (+NADPH 30 min) and 54.8% on CYP2B6 [4] (−NADPH 30 min). The “% of Control Enzyme Activity (n = 3) Average” value was found to be 66.9% on CYP2B6 [5] (Thio-TEPA 3.33 μM), 44.1% on CYP2B6 [5] (Thio-TEPA 10.0 μM) and 26.7% at CYP2B6 [5] (Thio-TEPA 30.0 μM).

For the compound `Nc1ccc(S(=O)(=O)Nc2ccnn2-c2ccccc2)cc1` [Sulfaphenazole], the “% of Control Enzyme Activity (n = 3) Average” value at CYP2C9 (Sulfaphenazole 3.33 μM) is reported as 23.8%; on CYP2C9 (Sulfaphenazole 10.0 μM), 14.9%.
